Source: ChEMBL document CHEMBL1759879, “A new quinoline derivative with cytotoxic activity from Streptomyces sp. neau50” (Bioorg Med Chem Lett, 2011)
Values after ≈ are worked out from the molar mass of the structure shown. Active and inactive are the calls of the source. No cut-off for these calls is given here.

Legend:
[1] = system: Staphylococcus epidermidis; experiment: Antimicrobial activity against Staphylococcus epidermidis at 10 uM by agar diffusion method; format: functional, organism-based
Candida albicans = experiment: Antimicrobial activity against Candida albicans at 10 uM by agar diffusion method; format: functional, organism-based
A549 = experiment: Cytotoxicity against human A549 cells after 72 hrs colorimetric assay; format: functional, cell-based; settings: A549, 72 h

With `COC(=O)c1cc(C)nc2c(CCC(C)(C)OC)cccc12` the Activity [1] was “inactive”, the Activity (Candida albicans) was “inactive” and the IC50 (A549) was 29.3 µg/mL (≈ 97.2 µM).
